In experiment [1] the test system is neocortex of memory-deficient mice. In words: Long-term potentiation, in vitro field potential recording of brain slices (MED64), memory-deficient mice. Format: cell-based. Conditions: compound injected for five minutes. The source says:
An in vitro electrophysiological electrical signal recording method was used to investigate whether compound HT-267, compound HT-177, and compound HT-178 can induce long-term potentiation in the neocortex of memory-deficient mice. The MED64 low-noise multi-electrode recording system was used to record the electrical signals of brain slices cultured in vitro.

Experiment [2] has as its target T1, CCK-B receptors (CHO-CCK) (Homo sapiens, UniProt P32239).
T1 construct: expressed in transfected cells; host or cells: CHO (CHO-CCK model cells)
T1 sequence (P32239 1-447): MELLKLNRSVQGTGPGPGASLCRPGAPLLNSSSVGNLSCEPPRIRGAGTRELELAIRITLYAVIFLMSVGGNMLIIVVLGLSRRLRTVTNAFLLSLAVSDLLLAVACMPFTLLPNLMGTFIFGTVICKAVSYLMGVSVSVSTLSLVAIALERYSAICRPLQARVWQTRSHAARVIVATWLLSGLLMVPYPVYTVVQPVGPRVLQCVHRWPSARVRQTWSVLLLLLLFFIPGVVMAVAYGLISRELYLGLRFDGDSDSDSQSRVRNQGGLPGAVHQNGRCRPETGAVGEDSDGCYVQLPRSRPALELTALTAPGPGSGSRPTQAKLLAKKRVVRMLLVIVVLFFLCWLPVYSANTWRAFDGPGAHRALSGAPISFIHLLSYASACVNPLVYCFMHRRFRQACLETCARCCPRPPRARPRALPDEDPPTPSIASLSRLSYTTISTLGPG
In words: Calcium flux (Fluo-8) agonist test on CHO-CCK model cells. It is filed as cell-based. The conditions noted are these: CHO-CCK cells. Summed up:
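Agonist-mode Fluo-8 calcium flux read on CHO-CCK cells after dye loading 30 min at 37 °C plus 30 min at room temperature.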

The test system of experiment [3] is neocortex of Alzheimer's mice. Briefly: Long-term potentiation, in vitro field potential recording of brain slices (MED64), Alzheimer's mice. Conditions: compound injected for five minutes. It is filed as cell-based. The source says:
An in vitro electrophysiological electrical signal recording method was used to investigate whether compound HT-267 can induce long-term potentiation in the neocortex of Alzheimer's mice. The MED64 low-noise multi-electrode recording system was used to record the electrical signals of brain slices cultured in vitro. […] It was shown that compound HT-267 could induce long-term potentiation in the neocortex of Alzheimer's mice.

A further experiment relates to neocortex of senile mice. Briefly: Long-term potentiation, in vitro field potential recording of brain slices (MED64), senile mice. It is filed as cell-based. Conditions: compound injected for five minutes. The source says: Long-term potentiation (LTP) is considered by researchers to be one of the memory mechanisms. We used an in vitro electrophysiological electrical signal recording method to investigate whether compound HT-267 can induce long-term potentiation in the neocortex of senile mice.
We used an MED64 low-noise multi-electrode recording system to record the electrical signals of brain slices cultured in vitro.

Experiment [4] deals with memory-deficient mice. In words: New object recognition experiment, memory-deficient mice. It is filed as in vivo. The conditions noted are these: intraperitoneal injection. The source says:
The new object recognition experiment is a highly validated method of cognitive memory, designed by Ennaceur & Delacour (1988) based on the exploration characteristics of rodents to new environments, and this model evaluates the memory function of the tested animal based on the length of time that the animal spends in exploring familiar objects it has seen in the environment and new objects it has not seen. […] The experiment is usually divided into three stages: 1. Adaptation period: let the animal be familiar with the experimental environment, and no objects are placed in the experimental box; 2. Familiarization period: place two identical objects in the experimental box and let the mice explore freely for 10 minutes; 3. Test period: put a new object in the experimental box to replace one of the old objects, and the positions of the objects remain unchanged. The exploration of mice was recorded with video, and the time spent in exploring the old and new objects by mice was analyzed, and the proportion of time spent in exploring the new object by mice in the test period accounting for the total time for exploring the objects was calculated, that is, the recognition index of new objects.
Adult memory-deficient mice were housed under standard conditions with free access to food and water. Our new object recognition experiment for testing memory-deficient mice mainly included the adaptation period, the familiarization period, and the test period. The experimental method was the same as Example 12.
We randomized memory-deficient mice into four groups, with one group given intraperitoneal injection of the solvent of drug as the control group, administration group 1 given intraperitoneal injection of the compound HT-267 solution, administration group 2 given intraperitoneal injection of the compound HT-177 solution, and administration group 3 given intraperitoneal injection of the compound HT-178 solution. After the adaptation and familiarization period training, we tested the recognition memory of several groups of mice in the test period experiment.

In experiment [5] the test system is memory-deficient mice. Briefly: Morris water maze, memory-deficient mice. Conditions: intraperitoneal injection, CCK4 four times a day 10 days, HT compounds once a day 8 days. Format: in vivo. The source says: Adult memory-deficient mice were housed under standard conditions with free access to food and water. Our Morris water maze experiment for testing memory-deficient mice mainly included two parts: positioning navigation experiment and space exploration experiment. The experimental methods were the same as Example 5. We randomized memory-deficient mice into six groups, with the first group given intraperitoneal injection of the CCK4 solution, the second group given intraperitoneal injection of the solvent of CCK4 solution as a control, the third group given intraperitoneal injection of the compound HT-267 solution, the fourth group given intraperitoneal injection of the compound HT-177 solution, the fifth group given intraperitoneal injection of the compound HT-178 solution, and the sixth group given intraperitoneal injection of the solvent of compound solution as a control. In the positioning navigation experiment, the treatment and training methods of the first and the second groups were the same as those of the first and second groups in Example 5, that is, four times of treatment a day, four times of training a day, for a total of 10 days of training. The treatment and training methods of the third to sixth groups were the same as the third and fourth groups in Example 5, that is, one treatment a day, four times of training a day, for a total of 8 days of training. In the space exploration experiment, the spatial memory ability of mice was tested in the same way for each group.

Each structure is given as a SMILES string. Entries after “also recorded” stand apart in the source; their conditions may differ.

For `CSCC[C@H](NC(=O)[C@@H](Cc1c[nH]c2ccccc12)NC(C)=O)C(=O)N[C@@H](CC(=O)O)C(=O)N[C@@H](Cc1cccc(Br)c1)C(N)=O` [HT-267, Ac-D-Trp-Met-Asp-Phe(3-Br)-NH2], the “basal field potential after administration (long-term potentiation)” value in experiment [1] is “enhanced, and the enhancement lasted for more than one hour”; in experiment [3], “enhanced, and the enhancement lasted for more than one hour”; in the experiment with neocortex of senile mice it was “enhanced, and the enhancement lasted for more than one hour”. In addition, the EC50 in experiment [2] (Fluo-8 calcium flux, 100% control = 20 nM CCK8) was found to be 0.113 nM. Further, the “agonistic/antagonistic activity on CCK-B receptors (in words)” value in experiment [2] (calcium signal) was “more active”. The “recognition index of new objects vs control” value in the experiment with memory-deficient mice [4] is recorded as “significantly higher than that of the control group”. Moreover, in the experiment with memory-deficient mice [5], the “proportion of exploration duration in the target quadrant vs control” value was “significantly higher than that in the control group; also recorded: best effect”.

Source of the values: US20240415918A1, “Polypeptide and its use as a CCK receptor agonist/antagonist” (Centre for Regenerative Medicine & Health, Hong Kong …, priority 2021, published 2024).
